For 17 compounds, inhibition, Ki and Inhibition results are on record in ChEMBL document CHEMBL1123161, “Synthesis and evaluation of 4-(substituted thio)-4-androstene-3,17-dione derivatives as potential aromatase inhibitors” (J Med Chem, 1986).

The target in data set [1] is T1, Aromatase (Homo sapiens, UniProt P11511).
T1 sequence (P11511 whole entry): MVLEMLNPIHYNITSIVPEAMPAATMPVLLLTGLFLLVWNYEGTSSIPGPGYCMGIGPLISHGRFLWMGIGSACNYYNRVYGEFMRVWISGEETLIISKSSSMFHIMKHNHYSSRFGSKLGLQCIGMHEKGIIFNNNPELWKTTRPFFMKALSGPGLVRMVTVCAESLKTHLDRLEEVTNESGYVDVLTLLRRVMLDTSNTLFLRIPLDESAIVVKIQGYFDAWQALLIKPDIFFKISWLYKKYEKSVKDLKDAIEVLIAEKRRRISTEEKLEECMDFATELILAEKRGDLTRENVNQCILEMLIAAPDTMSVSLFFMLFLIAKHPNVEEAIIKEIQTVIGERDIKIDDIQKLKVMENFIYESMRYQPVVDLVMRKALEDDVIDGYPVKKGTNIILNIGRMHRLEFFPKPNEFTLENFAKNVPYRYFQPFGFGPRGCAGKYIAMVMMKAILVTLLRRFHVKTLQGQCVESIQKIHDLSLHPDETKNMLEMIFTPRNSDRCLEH
Description: (§1) Inhibition of Cytochrome P450 19A1 at the concentration of 0.75 uM

Data set [2] addresses T1, Aromatase. The source holds these as a separate data set.
Description: (§2) Inhibition of Cytochrome P450 19A1 at the concentration of 1.5 uM
In data set [3] the target is T1, Aromatase. The source holds these as a separate data set.
Description: (§3) Inhibition of Cytochrome P450 19A1 at the concentration of 0.25 uM
Data set [4] concerns the target T1, Aromatase. As to the kind of experiment: Evaluated for its competitive inhibitory activity against Cytochrome P450 19A1 with the use of human placental microsomal preparation. On the set-up: species or system Placenta. The conditions noted are these: read-out: Ki app.
The target in data set [5] is T1, Aromatase. The settings on record: 0.75 µM.
Description: as §1
The target in data set [6] is T1, Aromatase. The conditions noted are these: 1.5 µM.
Description: as §2
In data set [7] the target is T1, Aromatase. The conditions noted are these: 0.25 µM.
Description: as §3

pKi: −log10 of the molar value.

Turning to `CC(=O)OC1=C2CCC3C4CCC(=O)C4(C)CCC3C2(C)CCC1=O` (stereo not drawn), 0.75 µM produced 70% inhibition at Aromatase [1]. Besides, at 1.5 µM the inhibition at Aromatase [2] was 78%. For the same compound, the inhibition at 0.25 µM against Aromatase [3] worked out at 38%.
As for `CC12CCC3C(CCC4=C(SCc5ccccc5)C(=O)CCC43C)C1CCC2=O` (stereo not drawn), the inhibition at 0.75 µM against Aromatase [1] was determined as 5%. For the same compound, the inhibition at 1.5 µM at Aromatase [2] worked out at 8%. At Aromatase [3], this compound yielded an inhibition at 0.25 µM of 2%.
`CCCCCSC1=C2CCC3C4CCC(=O)C4(C)CCC3C2(C)CCC1=O` (stereo not drawn) registered an inhibition at 0.75 µM against Aromatase [1] of 4%. For the same compound, the inhibition at 1.5 µM at Aromatase [2] turned out to be 8%. Further, the inhibition at 0.25 µM at Aromatase [3] was determined as 2%.
The like results for `CC12CCC3C(CCC4=C(Sc5ccc([N+](=O)[O-])cc5)C(=O)CCC43C)C1CCC2=O` (stereo not drawn) were, in that order, 0%, 0% and 0%.
Take `CSC1=C2CCC3C4CCC(=O)C4(C)CCC3C2(C)CCC1=O` (stereo not drawn): on Aromatase [4], the pKi was 7.23. This compound also returned an inhibition at 0.75 µM at Aromatase [1] of 61%. Testing at 1.5 µM against Aromatase [2] gave an inhibition of 74%. Besides, on Aromatase [3], testing at 0.25 µM gave an inhibition of 39%.
For `CC(=O)SC1=C2CCC3C4CCC(=O)C4(C)CCC3C2(C)CCC1=O` (stereo not drawn), the pKi on Aromatase [4] was 7.14. Also, the inhibition at 0.75 µM against Aromatase [1] was found to be 42%. This compound also yielded an inhibition at 1.5 µM at Aromatase [2] of 58%. On Aromatase [3], this compound gave an inhibition at 0.25 µM of 19%.
For the compound `Cc1ccc(SC2=C3CCC4C5CCC(=O)C5(C)CCC4C3(C)CCC2=O)cc1` (stereo not drawn), the inhibition at 0.75 µM against Aromatase [1] was 27%. On Aromatase [2], this compound showed an inhibition at 1.5 µM of 31%. This compound also returned an inhibition at 0.25 µM against Aromatase [3] of 14%.
Regarding `CCSC1=C2CCC3C4CCC(=O)C4(C)CCC3C2(C)CCC1=O` (stereo not drawn), on Aromatase [4], the pKi was 7.39. For the same compound, 0.75 µM produced 45% inhibition against Aromatase [1]. Moreover, the inhibition at 1.5 µM against Aromatase [2] is 52%. The compound further registered an inhibition at 0.25 µM at Aromatase [3] of 26%.
Regarding `CC12CCC3C(CCC4=C(S)C(=O)CCC43C)C1CCC2=O` (stereo not drawn), testing at 0.75 µM at Aromatase [1] gave an inhibition of 52%. The compound also registered an inhibition at 1.5 µM at Aromatase [2] of 63%. On Aromatase [3], this compound gave an inhibition at 0.25 µM of 31%.
For `CC12CCC3C(CCC4=C(Sc5ccc(N)cc5)C(=O)CCC43C)C1CCC2=O` (stereo in doubt; 14), the Inhibition on Aromatase [5], on Aromatase [6] and at Aromatase [7] was 0% throughout.
As to `CC12CCC3C(CCC4=C(Sc5ccc(N)cc5)C(=O)CCC43C)C1CCC2=O` (stereo in doubt), the Inhibition at Aromatase [5] came to 70%; at Aromatase [6] it was 82%; on Aromatase [7] it was 46%. Further, the pKi at Aromatase [4] was 7.74.
Take `C[C@]12CCC(=O)C(O)=C1CC[C@@H]1[C@@H]2CC[C@]2(C)C(=O)CC[C@@H]12` [FORMESTANE]: the pKi on Aromatase [4] is 7.27. Also, at Aromatase [1], the inhibition at 0.75 µM was 74%. Moreover, the inhibition at 1.5 µM against Aromatase [2] stood at 84%. Further, at 0.25 µM the inhibition on Aromatase [3] was 49%.
Turning to `CCCSC1=C2CCC3C4CCC(=O)C4(C)CCC3C2(C)CCC1=O` (stereo not drawn), on Aromatase [4], the pKi is 7.19. Also, the inhibition at 0.75 µM against Aromatase [1] is 42%. Besides, the inhibition at 1.5 µM at Aromatase [2] was 49%. At Aromatase [3], this compound displayed an inhibition at 0.25 µM of 25%.
`COc1ccc(SC2=C3CCC4C5CCC(=O)C5(C)CCC4C3(C)CCC2=O)cc1` (stereo not drawn) yielded an inhibition at 0.75 µM at Aromatase [1] of 0%. This compound showed an inhibition at 1.5 µM at Aromatase [2] of 2%. At Aromatase [3], this compound showed an inhibition at 0.25 µM of 0%.
In the case of `CC12CCC3C(CCC4=C(Sc5ccccc5)C(=O)CCC43C)C1CCC2=O` (stereo not drawn), the pKi on Aromatase [4] was 7.44. The inhibition at 0.75 µM against Aromatase [1] is 55%. For the same compound, on Aromatase [2], the inhibition at 1.5 µM turned out to be 68%. In addition, at Aromatase [3], at 0.25 µM the inhibition was 36%.
Regarding `CCCCSC1=C2CCC3C4CCC(=O)C4(C)CCC3C2(C)CCC1=O` (stereo not drawn), at Aromatase [1], the inhibition at 0.75 µM turned out to be 12%. The same compound came in with an inhibition at 1.5 µM against Aromatase [2] of 18%. For the same compound, on Aromatase [3], the inhibition at 0.25 µM came to 8%.
The like results for `CC12CCC3C(CCC4=C(Sc5ccc(Br)cc5)C(=O)CCC43C)C1CCC2=O` (stereo not drawn) were, in that order, 4%, 6% and 0%.

The inhibition is how much of the control response was suppressed. The term pKi denotes −log10 of the Ki, conventionally taken in molar units. One may read the Inhibition as the percentage by which the read-out fell short of the control. A high value points to a response far below the control.
